Data published in PubChem BioAssay (NCI).
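Grown in 96-well plates, cells were treated for 48 hours with each compound at five concentrations. Insufficient inhibition: endpoint recorded as highest concentration tested. TGI denotes the concentration required for complete inhibition of growth.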

What was measured:
Assay in all cases: inhibition of tumour cell growth, NCI panel, 48 h
[1] = system: DLD-1 colon
[2] = system: LXFL 529 NSCLC
[3] = system: HT29 colon
[4] = system: KM20L2 colon
[5] = system: MOLT-4 leukemia
[6] = system: DMS 273 small cell lung
[7] = system: SK-MEL-28 melanoma
[8] = system: SF-295 CNS
[9] = system: COLO 205 colon
[10] = system: CCRF-CEM leukemia
[11] = system: RPMI-8226 leukemia
[12] = system: M19-MEL melanoma
[13] = system: HOP-18 NSCLC
[14] = system: SNB-78 CNS
[15] = system: DMS 114 small cell lung

| Structure (SMILES) | TGI [1] [µM] | TGI [2] [µM] | TGI [3] [µM] | TGI [4] [µM] | TGI [5] [µM] | TGI [6] [µM] | TGI [7] [µM] | TGI [8] [µM] | TGI [9] [µM] | TGI [10] [µM] | TGI [11] [µM] | TGI [12] [µM] | TGI [13] [µM] | TGI [14] [µM] | TGI [15] [µM] |
| --- | --- | --- | --- | --- | --- | --- | --- | --- | --- | --- | --- | --- | --- | --- | --- |
| CN(C)CN(C)c1nc(N(C)C)nc(N(C)CN(C)C)n1 | > 100 | > 100 | > 100 | > 100 | 69.5 | 33.3 | 83.6 | > 100 | 61.6 | 61.1 | 67.2 | > 100 | > 100 | – | – |
| COc1cc(C(C#N)NNc2nc(C)cc(=O)[nH]2)cc(OC)c1OC (stereo not drawn) | > 100 | > 100 | > 100 | > 100 | – | > 100 | > 100 | > 100 | > 100 | > 100 | > 100 | > 100 | > 100 | > 100 | – |
| CC(=O)Nc1ccc(-c2nnc(SCC(=O)Nc3ccc(Cl)cc3)o2)cc1 | 27.9 | 22.5 | 23.2 | 33.3 | 32.8 | 40.3 | 27.2 | 25.2 | 34.6 | 82.9 | > 100 | 45.4 | 30.2 | > 100 | 4.29 |
| O=C(Nc1ccc(Cl)cc1)c1cc(S(=O)(=O)Nc2n[nH]c(=O)n2-c2ccccc2)c(S)cc1Cl | – | – | > 100 | – | > 100 | – | > 100 | > 100 | > 100 | > 100 | > 100 | – | – | – | – |
| O=[N+]([O-])/C(C(Cl)=C(Cl)Cl)=C(/Nc1ccccc1)Sc1ccccc1 | – | – | 48.7 | – | 46.7 | – | 36 | 47.5 | 34.8 | 36.6 | 66.1 | – | – | – | – |
| COC(=O)c1ccc(NCC2=C(Br)C(=O)C=CC2=O)cc1Cl | – | – | 32.6 | – | > 100 | – | 33.6 | > 100 | 31.6 | > 100 | > 100 | – | – | – | – |
| Cc1ccc(S[C@@H](C)[C@@](O)(C(N)=O)c2ccccc2)cc1 | – | – | > 100 | – | 33.3 | – | > 100 | 41.9 | > 100 | 26.2 | 74.8 | – | – | – | – |
| O=C1C(c2c(O)[nH]c3ccc(S(=O)(=O)NCCO)cc23)=Nc2ccccc21 | – | – | > 100 | – | 36.6 | – | > 100 | > 100 | > 100 | > 100 | > 100 | – | – | – | – |
| CC(=O)OCC1OC(n2c(-c3ccccc3)c(N=Nc3ccc(C)cc3)c(C)c(C#N)c2=S)C(OC(C)=O)C(OC(C)=O)C1OC(C)=O (stereo not drawn) | – | – | > 100 | – | 55.2 | – | 94.4 | 97.2 | > 100 | > 100 | > 100 | – | – | – | – |
| N#Cc1nc(/C=C/c2cccnc2)oc1N | – | – | > 100 | – | > 100 | – | > 100 | > 100 | > 100 | > 100 | > 100 | – | – | – | – |
| CCCCCCCCCCCCOP(=O)(O)OP(=O)(O)OCC1OC(n2cc(C)c(=O)[nH]c2=O)CC1O (stereo not drawn) | – | – | > 100 | – | > 100 | – | > 100 | > 100 | > 100 | > 100 | > 100 | – | – | – | – |
| CCCCC[C@H]1CCCCCCCCCC(=O)OC2C(O[C@@H]3OC(C)[C@H](OC(=O)[C@@H](C)CC)C(O[C@@H]4OC(C)[C@H](O)C(O)[C@@H]4O)[C@@H]3OC(=O)[C@H](C)CC)[C@H](OC3C(O)[C@@H](O)C(C)O[C@H]3O1)OC(CO)[C@H]2O (stereo partly drawn) | – | – | 30.3 | – | 35.4 | – | 30.9 | 32.7 | 25 | 32.5 | 30.5 | – | – | – | – |
| S=c1nc[nH]c2c1ncn2C1CCCO1 (stereo not drawn) | > 100 | > 100 | > 100 | > 100 | > 100 | > 100 | > 100 | > 100 | > 100 | > 100 | > 100 | – | > 100 | – | > 100 |
| COC(=O)c1cc(/C=C\c2cc(OC)ccc2OC)ccc1OC | – | – | > 100 | – | 41.7 | – | 59.7 | > 100 | 59.7 | > 100 | 44.5 | – | – | – | – |
| COc1ccc2c([nH]c3c(O)c(-c4c(C)cc5c([nH]c6c(CC=C(C)C)c(OC)ccc65)c4O)c(C)cc32)c1CC=C(C)C | > 100 | > 100 | > 100 | > 100 | > 100 | > 100 | > 100 | > 100 | > 100 | > 100 | > 100 | > 100 | > 100 | > 100 | > 100 |
| O=c1cc(N2CCCC2)[nH]c(=O)n1-c1ccc(Cl)cc1 | – | – | > 100 | – | > 100 | – | > 100 | > 100 | > 100 | > 100 | > 100 | – | – | – | – |
| CN(C)/C=C/C=C(/C=N/S(=O)(=O)C(F)(F)F)C1C=CN(S(=O)(=O)C(F)(F)F)C=C1 | – | – | 75.2 | – | 71 | – | > 100 | > 100 | 32.6 | 79.9 | > 100 | – | – | – | – |
| CN1CCN([C@H]2C[C@H]3[C@@H]4CC=C5C[C@@H](O)CC[C@]5(C)[C@H]4CC[C@]3(C)[C@H]2O)CC1 | – | – | 28.6 | – | > 82.5 | – | > 57.3 | > 100 | > 100 | 57.1 | 50.6 | – | – | – | – |
| CCOC(=O)CCC(NC(=O)c1ccc(Nc2nc3ccccc3nc2C(=O)OCC)cc1)C(=O)OCC (stereo not drawn) | – | – | > 89.7 | – | > 100 | – | > 100 | 23 | > 100 | > 100 | > 100 | – | – | – | – |
| CC(C)NC(=O)OCc1c(COC(=O)NC(C)C)c(-c2cc[n+](COC(=O)C3CCCCC3)cc2)n2c1CCC2 | – | – | > 100 | – | > 100 | – | > 100 | > 100 | > 100 | > 100 | > 100 | – | – | – | – |
| O=C(NCCCCCN1CCC2(CCCCC2)CC1)C(C1CCCCC1)C1CCCCC1 | – | – | 4.62 | – | 4.87 | – | 3.64 | 3.56 | 2.84 | 11.9 | 4.71 | – | – | – | – |
| O=S(=O)(O)c1cc(S(=O)(=O)O)c2c(N=Nc3ccc(N=Nc4ccccc4)cc3)c(O)ccc2c1 | – | – | > 100 | – | > 100 | – | > 100 | > 100 | > 100 | > 100 | > 100 | – | – | – | – |
| O=c1c2ccccc2nc(-c2ccccc2)n1NC(=S)Nc1cccc(Cl)c1 | > 100 | > 100 | > 100 | – | > 100 | > 100 | > 100 | > 100 | > 100 | > 100 | > 100 | > 100 | > 100 | – | > 100 |
| COCCN1C(=O)C2c3[nH]c4ccccc4c3C3CCC(C(C)(C)C)CC3C2C1=O (stereo not drawn) | – | – | 27 | – | > 10 | – | 32.3 | 34.5 | 33.7 | 87.2 | 39.5 | – | – | – | – |
